US8772029B2, “Modulation of oocyte meiotic progression and oocyte activation” (Northwestern University, priority 2011, dated 2014)
“Also recorded” adds a separate entry of the source.

Columns and labels:
Emi2 = biological target: T1, Emi2 (Mus musculus, UniProt Q8CDI2); assay: MI arrest induced by Emi2 cRNA injected into GV oocytes, IVM with or without TPEN; format: cell-based; settings: IVM medium with 10 μM TPEN 14 h
T1 construct: expressed in transfected cells; host or cells: mouse oocytes microinjected with in vitro transcribed cRNA (pIVT vector)
T1 sequence (Q8CDI2 1-640): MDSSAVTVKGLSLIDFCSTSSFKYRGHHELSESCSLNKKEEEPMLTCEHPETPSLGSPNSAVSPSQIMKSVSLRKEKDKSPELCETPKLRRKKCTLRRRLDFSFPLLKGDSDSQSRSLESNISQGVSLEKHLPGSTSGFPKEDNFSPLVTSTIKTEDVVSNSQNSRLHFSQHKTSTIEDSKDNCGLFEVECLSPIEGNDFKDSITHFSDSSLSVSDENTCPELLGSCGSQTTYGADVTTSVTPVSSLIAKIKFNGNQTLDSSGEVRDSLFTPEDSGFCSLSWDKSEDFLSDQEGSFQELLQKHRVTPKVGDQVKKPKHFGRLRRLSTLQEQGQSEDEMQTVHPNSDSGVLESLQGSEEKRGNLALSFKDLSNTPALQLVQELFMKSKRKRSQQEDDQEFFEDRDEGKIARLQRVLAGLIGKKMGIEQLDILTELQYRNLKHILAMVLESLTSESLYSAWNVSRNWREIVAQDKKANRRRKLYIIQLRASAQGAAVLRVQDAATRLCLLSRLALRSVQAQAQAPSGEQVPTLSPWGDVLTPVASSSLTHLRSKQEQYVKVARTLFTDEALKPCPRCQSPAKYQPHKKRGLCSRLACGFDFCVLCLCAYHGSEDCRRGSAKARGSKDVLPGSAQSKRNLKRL
Protocol: Oocytes were denuded of cumulus cells and fixed in a microtubule stabilizing buffer (Ibanez et al., 2005) containing 2% formaldehyde and 1% Triton X-100 for 30 min at 37° C. Oocytes were washed and blocked in PBS containing 0.1M glycine, 3mg/mL BSA, 0.01% Tween 20, and 0.01% sodium azide for at least 1 h and were stored in blocking solution at 4° C. for up to 2 weeks. Oocytes were incubated with anti-tubulin antibody (1:100) for 1 h at 37C. followed by three washes in blocking solution. They were then incubated for 1 h in AlexaFluor-488 conjugated anti-mouse secondary antibody (5μg/mL) and rhodamine-phalloidin (2U/mL), washed three additional times, and mounted in VECTASHIELD with DAPI. Microscopy was performed using a Leica SP5 inverted laser-scanning confocal microscope with a 63x oil immersion objective (Leica Microsystems, Heidelberg, Germany). Images were processed using LAS AF software (Leica Microsystems).
Microinjection was performed essentially as previously described (Bernhardt et al., 2010). GV intact oocytes were collected and manually denuded of cumulus cells in L-15/FBS containing 0.2 mM IBMX, then transferred to drops of L-15 medium containing 0.05% (w/v) polyvinyl alcohol (PVA) and 0.5% (v/v) penicillin-streptomycin (Invitrogen) under light mineral oil on a heated stage for injection. […]

GV oocytes = assay: TPEN treatment of PDE-inhibitor arrested GV oocytes; format: cell-based
Excerpt: In certain embodiments, zinc modulation is useful for overcoming earlier meiotic arrests. Normally, treatment of GV stage oocytes with broad-spectrum or PDE3-specific phosphodiesterase (PDE) inhibitors results in maintenance of GV arrest due to elevated cAMP levels. […] As such, limiting zinc availability could also be used to overcome GV arrest and allow progression through GVBD in clinical cases of GV arrest. The methods of the present invention are also useful as a secondary treatment for oocytes that remain GV arrested following conventional in vitro maturation, and could be of particular value for use in conjunction with in vitro follicle culture systems currently being developed for use in fertility preservation programs for patients undergoing fertility-threatening cancer treatments, in which methods for overcoming GV arrest are necessary (Xu et al 2006).

oocytes arrested at MI (Emi2): 44%
Structure (SMILES): c1ccc(CN(CCN(Cc2ccccn2)Cc2ccccn2)Cc2ccccn2)nc1 [TPEN, N,N,N′,N′-tetrakis(2-pyridylmethyl)ethylenediamine]
progression to MII after transfer back to zinc replete medium (GV oocytes; PDE-inhibitor arrested GV oocytes that resumed meiosis under TPEN): a proportion of these oocytes progress to MII
meiotic resumption of GV-arrested oocytes (GV oocytes; oocytes held at GV stage with phosphodiesterase inhibitors, TPEN treatment): premature GV breakdown (GVBD) and meiotic progression; also recorded: premature meiotic progression and GV breakdown (GVBD)
